# Read-outs that look alike come from different tables or passages of the source.
# Legend:
# [1] = tested on: isolated strains from food production environments; type: cell-based
# Excerpt: In the early stages of these investigations, efforts were concentrated on two zoonotic pathogens namely verocytoxigenic Escherichia coli O157 and Salmonella species, along with the recently described powdered infant formula pathogen Cronobacter species. […] Some of the genera appeared to be more susceptible compared with others, as in the case of Cronobacter. Attempts to develop tolerant phenotypes were marginally successful and where this was generated, the phenotype was unstable. […] Highly-tolerant mutant phenotypes were obtained and these are currently being studied in detail, using a dedicated technical pipeline, described above. It was decided that it would be of interest to include the food-borne zoonotic pathogen Campylobacter and to evaluate its susceptibility/tolerance to the same panel compounds. Once again, it could be shown that Campylobacter was susceptible. However, as the panel of compounds used could be described as synthetic, the availability of C-Activ-12 presented the opportunity to re-evaluate the responses of these bacteria to this natural biocide. […] In the current project proposal, this inhibitory effect will be characterised in detail, to provide a means of understanding the mode of action. […] C-Activ-12 is a novel natural biocide. The formulation ingredients are FDA GRAS approved comprising organic acids and natural fruit extracted polyphenols. The broad spectrum activity of the formulation resulted it its inclusion in a University College Dublin Government funded independent study under the FIRM (see hereunder) research program. The program studies the effectiveness of products used to manage micro-organisms/pathogens prevalent in the food sector, comparing effectiveness & testing against isolated strains. […] The Irish Department of Agriculture and Food's Food Institutional Research Measure (FIRM) is funded under the National Development Plan 2007-2013. FIRM is the primary national funding mechanism for food research in third level colleges and research institutes. FIRM is a public good competitive programme whereby multi-disciplinary teams from two or more institutions usually carry out the research projects. Research outputs are communicated to industry by a dedicated dissemination team known as RELAY. FIRM aims to develop public good technologies that will underpin a competitive, innovative and sustainable food manufacturing and marketing sector. The programme is creating a base of knowledge and expertise in generic technologies that will support a modern, consumer-focused industry and build Ireland's capacity for R&D. A key output of the FIRM is highly trained young researchers at PhD and postdoctoral level, with specialist skills particularly relevant to the Irish food sector. The following pages provide an overview of the effectiveness of CeBeC's C-Activ-12 in killing micro-organisms. Standard testing protocols were first applied by AIT CBBR under British & European Food Grade Sanitiser Standard BS EN 1276, requiring a log 5 reduction from a log 7 to a log 2. The activity of C-Activ-12 highlighted a greater than log 6 reduction from a log 8. Based on the results under BS EN 1276, UCD added the product under the FIRM study whereby pathogens were isolated from food production environments. The rationale behind this approach is that most standards rely on ATCC & NCTC cultures which are more than often easier to kill than isolates.
# [2] = tested on: Escherichia coli ATCC 25922; test: Preliminary evaluation of bactericidal efficacy (5 min treatment, colony counts); type: cell-based; design: key: TNTC=To Numerous To Count; conditions: 5 min exposure to 0.5% v/v
# Method: The compositions are suitable for use in the food and food processing industry. For rapid screening, a preliminary method allowed selection of the most efficient formulations. […] The composition of each formulation (0.5% v/v) was used blind to ensure no bias. The formulation was reviewed after each set of tests to improve the products composition and efficiency. Prototype formulations were prepared under aseptic conditions.
# Typically, an overnight culture of bacteria strains were diluted 1:1000 in sterile hard water to a final density of approx 1×10^6 bacteria. A 1 ml volume of bacteria was treated for 5 minutes at room temperature with 500 μl of antimicrobial solutions. […] The treatment was ceased by the addition of 200 μl of the neutralising solution. All strains were serially diluted to 10^−5 in sterile peptone water and 100 μl were plated in duplicate on the appropriate plate and then incubated at 37° C. for 24 hours except Campylobacter jejuni and Enterococcus hirae. The appropriate controls were included in each test e.g. an unopened agar plate and a set of serially diluted, untreated bacteria. After mesophilic aerobic incubation (or mesophilic microaerophilic incubation for C. jejuni), the number of colonies was enumerated and compared to the untreated controls to determine if a Log order reduction was obtained.
# [3] = 74 strains, unheaded column beside Stdev (presumably mean)
Compound,"MBC [1, 3]","MIC [1, 3]",MBC Range ([1]; range over 74 strains),MIC Range ([1]; range over 74 strains),"E. coli bacterial colony counts (average of two replicates), Bacterial Dilution 10^−1 [2]","E. coli bacterial colony counts (average of two replicates), Bacterial Dilution 10^−2 [2]","E. coli bacterial colony counts (average of two replicates), Bacterial Dilution 10^−3 [2]","E. coli bacterial colony counts (average of two replicates), Bacterial Dilution 10^−4 [2]","E. coli bacterial colony counts (average of two replicates), Bacterial Dilution 10^−5 [2]","E. coli bacterial colony counts (average of two replicates), Bacterial Dilution Neat [2]",further results
Cc1ccc(C(C)C)c(O)c1 [Thymol],121.38 µg/mL,85.73 µg/mL,4.92 to 315 µg/mL,19.69-315^ ug/ml,,,,,,,
CC1=CC[C@@H](C(C)(C)O)CC1 [a-Terpineol],2.84 ul/ml,2.43 ul/ml,0.42-7.59 ul/ml,0.53-7.59 ul/ml,,,,,,,
O=C(O)/C=C/c1ccccc1 [Cininamic Acid],119.40 µg/mL,95.12 µg/mL,23.44 to 421.88 µg/mL,23.44 to 140.65 µg/mL,,,,,,,
CC(C)=CCC/C(C)=C/CO [Geraniol],9.46 ul/ml,8.29 ul/ml,0.94-22.5 ul/ml,0.94-15^ ul/ml,,,,,,,
"O=C(O)CC(O)C(=O)O (stereo not shown) [E3, MALIC ACID]",,,,,TNTC,TNTC,TNTC,TNTC,>61,TNTC,
"O=C(O)CC(O)(CC(=O)O)C(=O)O [E4, CITRIC ACID]",,,,,TNTC,TNTC,>159,TNTC,10,TNTC,
C=CCc1ccc(O)c(OC)c1 [Eugenol],0.99 ul/ml,0.86 ul/ml,0.25-2 ul/ml,0.25-2 ul/ml,,,,,,,
"O=C1O[C@H]([C@@H](O)CO)C(O)=C1O [E5, ASCORBIC ACID]",,,,,TNTC,TNTC,TNTC,TNTC,TNTC,TNTC,
O=C/C=C/c1ccccc1 [Trans-cinnaldeheyde],0.50 ul/ml,0.43 ul/ml,0.05-0.8 ul/ml,0.2-0.8 ul/ml,,,,,,,
O=C(O)c1ccccc1 [Benzoic Acid],,,,,,,,,,,MBC [1]: 920.79 µg/mL; MBC Range [1]: 165 to 1320 µg/mL; MIC [1]: 810.51 µg/mL; MIC Range [1]: 247.5 to 1320 µg/mL
